Measurements as given in US11839698B2, “Drug composition and coating” (priority 2014, dated 2023).
Structures can show the parent of a compound that is named as a salt.

Tests used:
[1] = Early experiments on stability of organic additive in solution; type: physicochemical
Excerpt: Thus, vanillin is not suitable as an organic additive for the present invention.

[2] = in acetone, ethanol and aqueous mixtures thereof
Excerpt: As discussed in further detail below, coatings of the invention can be prepared by pipetting a solution containing therapeutic agent and excipient onto the device to be coated. […] Thus, in one embodiment the organic additive is not thiamine-HCl.

[3] = Test Method D: stability to ethylene oxide sterilization (paclitaxel recovery by UPLC); type: physicochemical; conditions: additive formulated with paclitaxel as solid coating
Experimental: A sample of a composition of the invention or a coated device of the invention was placed in a breathable polyethylene pouch (e.g. a Tyvek pouch) and subjected to at least 12 hours preconditioning at 43° C. and 65% relative humidity followed by 12 hours exposure to 600 mg/L ethylene oxide at 52° F. and 25% relative humidity. The chamber was then aerated at 32° F. for at least 12 hours until ethylene oxide concentration was less than 0.25 ppm.
After sterilization, the paclitaxel content on the device or the paclitaxel content of the composition was assessed (through device extraction for coated medical devices i.e. immersion of the whole device in an extraction solvent) using UPLC quantification as described in the evaluation methods section. For each device or composition, the percentage drug recovery after sterilization was calculated by normalizing the extracted paclitaxel amount by the theoretical paclitaxel amount loaded on the device, or present in the composition pre-sterilization.
Approximately 30 mg of excipient was weighed into a 7 mL glass vial and 6 mL of 75/25 v/v acetone/water was added. A small stirrer bar was added to each vial and all samples were stirred overnight at room temperature to ensure full dissolution. […] Percent paclitaxel recovery was calculated by normalizing to either theoretical initial loading or pre-sterilized samples.

Compound | effect of additive on paclitaxel under ethylene oxide sterilization [3] | further results
COc1cc(C=O)ccc1O [vanillin] |  | stability of additive in solution [1]: easily degraded in solution
Cc1ncc(C[n+]2csc(CCO)c2C)c(N)n1 [thiamine-HCl] |  | solubility of additive [2]: poor solubility
NC(=O)c1cccnc1 [niacinamide] | nearly complete paclitaxel degradation | 
O=C([O-])c1ccccc1O.[Na+] [sodium salicylate] | cause degradation of the paclitaxel | 
